Experimental data taken from patent US8609332B2, “Assay” (Queen's University of Belfast, priority 2006, dated 2013).

Assays:
[1] = test system: ser473 phosphorylated Akt; assay: AKT phosphorylation immunoblot; format: cell-based, rat
Procedure: FIG. 5C Immunodetection and LY290042-inhibition of phosphorylated Akt in parental R37, R37-CMV, R37-OPN and R37-RAN cells. 20 μg cell lysates were loaded onto a SDS 10% (W(W) polyacrylamide gel as follows: lane 1 R37, lane 2 R37-pBk-CMV; lane 3 R37-RAN, lane 4 R37-OPN; lane 5 R37-OPN treated with 50 μm LY290042 for 18 hr (R37-OPN/LY); and lane 6 R37-RAN treated with 50 μm LY290042 for 18 hr (R37-RAN/LY). Proteins were detected in immunoblots using specific antibodies to phosphoserine 473 AkT. Bands were quantified using densitometric analysis and quantified with respect to those of β-actin. The results were a representative sample of three experiments. The average fold increase for 3 different experiments for phosphorylated AkT on ser473 is: lane 1=1, lane 2=2.2±0.4, lane 3=22.5±0.7, lane 4=21.1±0.5, lane 5=0±0 and lane 6=0±0.
The R37, R37-CMV, R37-RAN and R37-OPN cells were harvested at 80% confluence from 7 cm dishes. The cell were lysed in 300 μl of 2× Loading buffer (20% glycerol (v/v), 4% SDS (w/v), 10% 2-mercaptoethanol (v/v), 126 mM Tris, pH 6.8 and coloured with bromophenol blue). The lysates were sonicated, boiled at 100° C. for 5 minutes and then centrifuged at 15000 rpm for 10 minutes. Proteins were resolved by 7.5% SDS-PAGE and immunoblofted for ser473 phosphorylated Akt.as previously (43).

[2] = at 50 μM; cited from earlier work

## O=c1cc(N2CCOCC2)oc2c(-c3ccccc3)cccc12 [LY294002, 2-4(4-morpholinyl)-8-phenyl-4H-1-benzopyran-4-one]
[1]; R37-OPN cells treated with 50 μm for 18 hr (lane 5)
  phosphorylated AkT on ser473, average fold increase (R37 = 1): 0±0 fold
[1]; R37-RAN cells treated with 50 μm for 18 hr (lane 6)
  phosphorylated AkT on ser473, average fold increase (R37 = 1): 0±0 fold
[2]
  induction of apoptosis: without inducing apoptosis
